Laboratory results as given in PubChem BioAssay (NCI).
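1) Cells in 96-well plates. 2) Compound, 48 h, 5 concentrations. 3) Linear interpolation between surrounding doses. 4) Unreached endpoint = highest concentration. Here, GI50 denotes the concentration required for 50% inhibition of growth. TGI marks complete inhibition of growth.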

Legend:
Assay in all cases: inhibition of tumour cell growth, NCI panel, 48 h
OVCAR-5 ovarian = test system: OVCAR-5 ovarian
A498 renal = test system: A498 renal
UACC-257 melanoma = test system: UACC-257 melanoma
SN12C renal = test system: SN12C renal
M14 melanoma = test system: M14 melanoma
NCI-H23 lung = test system: NCI-H23 lung
SK-MEL-28 melanoma = test system: SK-MEL-28 melanoma
KM12 colon = test system: KM12 colon
HCC-2998 colon = test system: HCC-2998 colon
RXF 393 renal = test system: RXF 393 renal

Row | SMILES | GI50 (OVCAR-5 ovarian) | TGI (OVCAR-5 ovarian) | GI50 (A498 renal) | TGI (A498 renal) | GI50 (UACC-257 melanoma) | TGI (UACC-257 melanoma) | GI50 (SN12C renal) | TGI (SN12C renal) | GI50 (M14 melanoma) | TGI (M14 melanoma) | GI50 (NCI-H23 lung) | TGI (NCI-H23 lung) | GI50 (SK-MEL-28 melanoma) | TGI (SK-MEL-28 melanoma) | GI50 (KM12 colon) | TGI (KM12 colon) | GI50 (HCC-2998 colon) | TGI (HCC-2998 colon) | GI50 (RXF 393 renal) | TGI (RXF 393 renal)
1 | COc1ccc(C(=O)c2cc3c(N)c(C(=O)Nc4cccc(Cl)c4)sc3nc2C)cc1 | 1.69 µM | > 33.3 µM | 0.821 µM | > 33.3 µM | 30.7 µM | > 33.3 µM | 1.96 µM | > 33.3 µM | 1.08 µM | > 33.3 µM | 2.53 µM | > 33.3 µM | 3.03 µM | > 33.3 µM | 1.25 µM | > 33.3 µM | 1.92 µM | > 33.3 µM | 0.655 µM | 2.08 µM
2 | CC[C@]1(O)C[C@@H]2CN(Cc3c([nH]c4ccccc34)[C@@](C(=O)OC)(c3cc4c(cc3OC)N(C)[C@H]3[C@@](O)(C(=O)OC)[C@H](OC(C)=O)[C@]5(CC)[C@@H]6C[C@@H]6CN6CC[C@]43[C@@H]65)C2)C1 | 0.144 µM | > 4.38 µM | 0.163 µM | > 2.85 µM | > 4.38 µM | > 4.38 µM | 0.232 µM | > 4.38 µM | 0.135 µM | > 2.93 µM | 0.195 µM | > 4.38 µM | 0.0822 µM | > 4.38 µM | 0.0408 µM | > 4.38 µM | 0.116 µM | > 4.38 µM | 0.111 µM | > 4.38 µM
3 | COC(=O)C1=C(O)C(O)=C(C(=O)OC)CC1 | – | > 100 µM | – | > 100 µM | – | > 100 µM | – | > 100 µM | – | > 100 µM | – | > 100 µM | – | > 100 µM | – | > 100 µM | – | > 100 µM | – | 35.1 µM
4 | COc1ccc(CN(O)C2C(CO)OC(n3cc(I)c(=O)[nH]c3=O)C2O)cc1 (stereo not given) | – | > 100 µM | – | > 100 µM | – | > 100 µM | – | > 100 µM | – | > 100 µM | – | > 100 µM | – | > 100 µM | – | > 100 µM | – | > 100 µM | – | > 100 µM
5 | COc1ccc(C(=O)/C=C/c2ccc(Cl)cc2)cc1S(N)(=O)=O | 3.08 µM | 13.8 µM | 10.4 µM | 22.1 µM | 12.2 µM | 24.9 µM | 2.72 µM | 8.4 µM | 2.13 µM | 5.68 µM | 2.54 µM | 7.06 µM | 3.24 µM | 12.7 µM | 1.73 µM | 3.78 µM | 1.78 µM | 3.65 µM | 1.98 µM | 3.97 µM
6 | [N-]=[N+]=Nc1ccc(S(=O)(=O)Oc2cc(OS(=O)(=O)c3ccc(N=[N+]=[N-])cc3)cc(OS(=O)(=O)c3ccc(N=[N+]=[N-])cc3)c2)cc1 | – | > 100 µM | – | > 100 µM | – | > 100 µM | – | > 10 µM | – | > 100 µM | – | > 100 µM | – | > 100 µM | – | > 100 µM | – | > 100 µM | – | > 100 µM
7 | COc1ccc(NC(=O)c2ccc(NC3=C(Cl)C(=O)N(Cc4ccccc4)C3=O)cc2)cc1 | 14.8 µM | 28.8 µM | 16.8 µM | 34.8 µM | 9.14 µM | 24.8 µM | 14.4 µM | 30.2 µM | 9.42 µM | 28.6 µM | 8.38 µM | 30 µM | 10.1 µM | 31.6 µM | 16.8 µM | 38.2 µM | 15.6 µM | 31.1 µM | 3.21 µM | 14.6 µM
8 | Cc1c(C(=O)/C=C/c2ccco2)[n+](=O)c2ccccc2n1[O-] | – | > 100 µM | – | > 100 µM | – | > 100 µM | – | > 100 µM | – | > 100 µM | – | > 100 µM | – | > 100 µM | – | > 100 µM | – | > 100 µM | – | > 100 µM
9 | CCc1cc(C(N)=O)ccc1-n1nc(C(C)C)c2c(-n3cnc(-c4cnn(C)c4)c3)ccnc21 | 15.4 µM | > 100 µM | 4.99 µM | > 100 µM | 2.9 µM | > 100 µM | 0.761 µM | > 100 µM | 1.22 µM | > 100 µM | 1.14 µM | > 100 µM | 1.22 µM | > 100 µM | 0.463 µM | 6.28 µM | 3.39 µM | > 100 µM | 3.09 µM | > 100 µM
10 | O=C(Nc1nc2ncn(CCOC(=O)c3ccccc3)c2c(=O)[nH]1)c1ccccc1 | – | > 100 µM | – | > 100 µM | – | > 100 µM | – | > 100 µM | – | > 100 µM | – | > 100 µM | – | > 100 µM | – | > 100 µM | – | > 100 µM | – | > 93.2 µM
